The source of these data is patent publication US5200329A, “Method of hydroxylating 3-[(4,7-dichlorobenzoxazol-2-yl)methyl]amino-5-ethyl-6-methyl-2-(1H)-pyr idinone by incubation with liver slices” (Merck & Co., Inc., priority 1992, dated 1993).

In data set [1] the target is T1, recombinant HIV reverse transcriptase (HIV RTR) (Human immunodeficiency virus type 1 group M subtype B, UniProt P04585).
T1 construct: recombinant HIV reverse transcriptase (HIV RTR)
In words: Reverse Transcriptase Assay (incorporation of tritiated deoxyguanosine monophosphate into acid-precipitable cDNA). Format: biochemical. As to conditions: poly r(C).oligo d(G)12-18 and dGTP at about Km; 37° C., 45 minutes. How it is done:
The assay measures the incorporation of tritiated deoxyguanosine monophosphate by recombinant HIV reverse transcriptase (HIV RTR) (or other RT) into acid-precipitable cDNA at the Km values of dGTP and poly r(C).oligo d(G)12-18.
Thirty uL of a reaction mixture containing equal volumes of: 500 mM Tris.HCl (pH 8.2), 300 mM MgCl2, 1200 mM KCl, 10 mM DTT, 400 μg/mL poly r(c).oligo d(G) [prepared by dissolving 1.5 mg (25 U) poly r(C).oligo d(G) in 1.5 ml sterile distilled H2 O and diluting to 400 μg/ml], 0.1 μCi/μl [^3 H] dGTP, 160 μM dGTP, was added to 10 μl sterile distilled H2 O, and 2.5 μl of potential inhibitor. An aliquot of 10 μL of 5 nM purified HIV RTR was added to initiate thereaction. The mixture was incubated at 37° C. for 45 minutes.
After incubation is complete, the tubes were cooled in ice for 5 minutes. Ice-cold 13% TCA containing 10 mM NaPPi (200 μl) are added and the mixture incubated on ice for 30 minutes. The precipitated cDNA is removed by filtration using presoaked glass filters [TCA, NaPPi ]. The precipitate is then washed with 1N HCl, 10 mM NaPPi.
The filter discs are then counted in a scintillation counter.
Under these conditions [dGTP] and poly r(C).oligo d(G)12-18 each are approximately equal to the appropriate Km value. Approximately 5-6,000 cpm of [^3 H] GMP are incorporated into acid-precipitable material. The RT reaction is concentration- and time-dependent. […] The calculated IC50 value for the compounds (Ia) and (Ib) of this incertion are as follows: […]

Data set [2] in a line: Incubation With Human Liver Slices (metabolite formation by HPLC). The class given is in vitro ADME. To be noted: 2.85 μmol compound (II), 1.25 g wet weight liver slices (donor), Williams' Medium E, 37° C., four hours. How it is done: Compound (II) (2.85 μmol) was incubated with liver slices (1.25 g wet weight) from a human donor in 20 ml of Williams' Medium E at 37° C. under an atmosphere of 5% CO2 in air for four hours. The metabolites were extracted into ethyl acetate followed by evaporation of the solvent. The residue was reconstituted in methanol and compared on HPLC with an extract of rat liver slice incubation of compound (II). The HPLC effluents were monitored by a UV-diode array detector, and fractionated for liquid scintillation spectrophotometry.

Structures are written as SMILES.

Consider `Cc1[nH]c(=O)c(NCc2nc3c(Cl)ccc(Cl)c3o2)cc1C(C)O` (racemic) [Ia, 3-[(4,7-dichlorobenzoxazol-2-yl)methylamino]-5-(1-hydroxyethyl)-6-methylpyridin-2(1H)-one], for which the IC50 in data set [1] came to 1050 nM.

On to `CCc1cc(NCc2nc3c(Cl)ccc(Cl)c3o2)c(O)nc1C` [Compound II, 3-[(4,7-dichlorobenzoxazol-2-yl)-methyl]amino-5-ethyl-6-methyl-2(1H)-pyridinone], for which the IC50 in data set [1] is 20 nM. Further, the “formation of metabolites indicated by HPLC comparisons of UV and radioactivity profiles” value in data set [2] was “formation of Ia and Ib in the human liver slices incubation”.

For the compound `CCc1cc(NCc2nc3c(Cl)ccc(Cl)c3o2)c(=O)[nH]c1CO` [Ib, 3-[(4,7-dichlorobenzoxazole-2-yl)methylamino]-5-ethyl-6-hydroxymethylpyridi n-2(1H)-one], the IC50 in data set [1] turned out to be 14 nM.
